Test [1] addresses T1, Activin receptor type-1B (Homo sapiens) (UniProt P36896).
T1 sequence (whole entry): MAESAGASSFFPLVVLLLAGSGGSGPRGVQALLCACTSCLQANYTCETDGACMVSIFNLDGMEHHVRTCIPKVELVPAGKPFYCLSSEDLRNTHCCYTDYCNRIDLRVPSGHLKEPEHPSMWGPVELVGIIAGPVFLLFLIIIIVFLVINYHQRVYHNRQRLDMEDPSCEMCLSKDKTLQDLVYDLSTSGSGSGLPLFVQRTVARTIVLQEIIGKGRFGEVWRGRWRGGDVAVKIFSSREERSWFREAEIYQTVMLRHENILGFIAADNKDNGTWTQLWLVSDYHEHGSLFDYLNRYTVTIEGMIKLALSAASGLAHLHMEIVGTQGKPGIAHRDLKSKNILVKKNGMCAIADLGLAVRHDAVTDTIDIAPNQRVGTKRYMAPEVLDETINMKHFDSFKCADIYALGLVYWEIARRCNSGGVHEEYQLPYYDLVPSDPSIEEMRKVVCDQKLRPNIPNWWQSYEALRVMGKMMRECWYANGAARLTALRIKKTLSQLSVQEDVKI
The test can be described thus: Selectivity interaction (Ambit KINOMEscan and KiNATiv profiling in Jurkat cells) EUB0000090b ACVR1B. In kind it is cell-based. The settings on record: at 1 µM.

The target of test [2] is High affinity nerve growth factor receptor (Homo sapiens, UniProt P04629). The test can be described thus: Selectivity interaction (KinomeScan (DiscoverX)) EUB0001049a NTRK1. The following applies: at 1 µM.
For a further test, the target named is Focal adhesion kinase 1 (Homo sapiens, UniProt Q05397). The test can be described thus: Selectivity interaction (KinomeScan (DiscoverX)) EUB0001049a PTK2. The following applies: at 1 µM.
The target in test [3] is Ribosomal protein S6 kinase alpha-5 (Homo sapiens) (UniProt O75582). The experiment in a line: Selectivity interaction (KinomeScan (DiscoverX)) EUB0001049a RPS6KA5. The following applies: at 1 µM.
In test [4] the target is Tyrosine-protein kinase JAK2 (Homo sapiens, UniProt O60674). The test can be described thus: Selectivity interaction (KinomeScan (DiscoverX)) EUB0000655a JAK2. The settings on record: at 10 µM.
The target of test [5] is T2, Uncharacterized serine/threonine-protein kinase SBK3 (Homo sapiens) (UniProt P0C264).
T2 sequence (whole entry): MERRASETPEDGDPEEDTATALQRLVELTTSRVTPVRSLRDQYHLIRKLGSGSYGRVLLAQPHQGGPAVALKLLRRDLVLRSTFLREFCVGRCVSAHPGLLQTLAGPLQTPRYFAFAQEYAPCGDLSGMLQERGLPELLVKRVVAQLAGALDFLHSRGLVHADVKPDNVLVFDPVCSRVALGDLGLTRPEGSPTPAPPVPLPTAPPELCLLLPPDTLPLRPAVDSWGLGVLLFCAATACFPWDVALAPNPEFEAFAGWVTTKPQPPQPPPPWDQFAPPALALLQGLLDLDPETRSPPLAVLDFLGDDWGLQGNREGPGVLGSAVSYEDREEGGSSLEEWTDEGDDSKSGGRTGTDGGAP
The test can be described thus: Selectivity interaction (KinomeScan (DiscoverX)) EUB0000655a SBK3. The settings on record: at 10 µM.

For test [6], the target named is Serine/threonine-protein kinase tousled-like 2 (Homo sapiens) (UniProt Q86UE8). The experiment in a line: Selectivity interaction (KinomeScan (DiscoverX)) EUB0000655a TLK2. The following applies: at 10 µM.
In test [7] the target is Serine/threonine-protein kinase 32B (Homo sapiens) (UniProt Q9NY57). The experiment in a line: Selectivity interaction (KinomeScan (DiscoverX)) EUB0000655a STK32B. The following applies: at 10 µM.
The target in test [8] is [Pyruvate dehydrogenase (acetyl-transferring)] kinase isozyme 1, mitochondrial (Homo sapiens, UniProt Q15118). The experiment in a line: Selectivity interaction (Kinase screening (Upstate/Millipore)) EUB0000604a PDK1.
Test [9] concerns the target Macrophage colony-stimulating factor 1 receptor (Homo sapiens) (UniProt P07333). The experiment in a line: Selectivity interaction (KinomeScan (DiscoverX)) EUB0000666a CSF1R. The following applies: at 10 µM.
Test [10] addresses Vascular endothelial growth factor receptor 3 (Homo sapiens, UniProt P35916). The test can be described thus: Selectivity interaction (KinomeScan (DiscoverX)) EUB0001619a FLT4. The following applies: at 1 µM.
In test [11] the target is T3, Serine/threonine-protein kinase D2 (Homo sapiens) (UniProt Q9BZL6).
T3 sequence (whole entry): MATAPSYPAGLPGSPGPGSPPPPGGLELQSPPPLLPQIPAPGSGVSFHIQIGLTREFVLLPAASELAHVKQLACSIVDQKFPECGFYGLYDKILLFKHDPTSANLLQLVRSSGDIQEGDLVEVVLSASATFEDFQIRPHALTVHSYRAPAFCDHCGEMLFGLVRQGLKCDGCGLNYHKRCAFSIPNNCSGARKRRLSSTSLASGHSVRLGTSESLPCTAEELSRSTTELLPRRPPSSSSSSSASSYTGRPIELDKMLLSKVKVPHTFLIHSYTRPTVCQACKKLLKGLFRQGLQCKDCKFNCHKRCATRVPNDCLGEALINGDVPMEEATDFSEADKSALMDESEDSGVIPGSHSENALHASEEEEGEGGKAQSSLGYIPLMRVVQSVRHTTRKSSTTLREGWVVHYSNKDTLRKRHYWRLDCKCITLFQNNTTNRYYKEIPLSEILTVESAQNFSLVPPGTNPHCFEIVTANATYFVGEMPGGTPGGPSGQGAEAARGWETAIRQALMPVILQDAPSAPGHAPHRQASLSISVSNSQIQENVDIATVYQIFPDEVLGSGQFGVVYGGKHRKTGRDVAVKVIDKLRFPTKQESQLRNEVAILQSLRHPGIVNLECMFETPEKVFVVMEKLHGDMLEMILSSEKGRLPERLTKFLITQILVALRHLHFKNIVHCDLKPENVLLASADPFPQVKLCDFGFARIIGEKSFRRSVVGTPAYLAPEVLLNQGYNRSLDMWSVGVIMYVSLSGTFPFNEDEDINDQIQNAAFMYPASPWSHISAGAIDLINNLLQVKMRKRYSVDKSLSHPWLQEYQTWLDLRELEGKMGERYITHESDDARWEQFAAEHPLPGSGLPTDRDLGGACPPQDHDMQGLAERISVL
The test can be described thus: Selectivity interaction (ActivX KiNativ screen (ex vivo kinase selectivity in human PBMCs)) EUB0001619a PRKD2. It counts as cell-based. The following applies: PBMC, at 1 µM.

Test [12] has as its target Mitogen-activated protein kinase kinase kinase 20 (Homo sapiens) (UniProt Q9NYL2). The experiment in a line: Selectivity interaction (Kinase panel (KiNativ target engagement assay in Jurkat cells)) EUB0001635a MAP3K20. In kind it is cell-based. The following applies: Selectivity number of off-targets 0.0, Selectivity number of targets 233.0, Source Knowledge https://www.sciencedirect.com/science/article/pii/S2451945619300674?via%3Dihub, at 1 µM.

Chain of Serine/threonine-protein kinase 32B (Homo sapiens) (Q9NY57 whole entry): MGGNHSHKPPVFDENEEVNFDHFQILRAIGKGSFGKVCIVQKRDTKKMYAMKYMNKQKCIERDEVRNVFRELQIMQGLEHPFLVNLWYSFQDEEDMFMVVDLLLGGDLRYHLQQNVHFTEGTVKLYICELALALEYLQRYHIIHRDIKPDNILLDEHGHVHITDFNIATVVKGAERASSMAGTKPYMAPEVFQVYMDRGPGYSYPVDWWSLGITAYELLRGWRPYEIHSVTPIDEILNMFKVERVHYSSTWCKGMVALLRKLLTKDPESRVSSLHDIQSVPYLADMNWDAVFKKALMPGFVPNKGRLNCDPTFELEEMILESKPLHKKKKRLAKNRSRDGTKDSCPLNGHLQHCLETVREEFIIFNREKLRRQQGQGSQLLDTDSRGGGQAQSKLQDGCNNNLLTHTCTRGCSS
Chain of Ribosomal protein S6 kinase alpha-5 (Homo sapiens) (O75582 whole entry, looked up): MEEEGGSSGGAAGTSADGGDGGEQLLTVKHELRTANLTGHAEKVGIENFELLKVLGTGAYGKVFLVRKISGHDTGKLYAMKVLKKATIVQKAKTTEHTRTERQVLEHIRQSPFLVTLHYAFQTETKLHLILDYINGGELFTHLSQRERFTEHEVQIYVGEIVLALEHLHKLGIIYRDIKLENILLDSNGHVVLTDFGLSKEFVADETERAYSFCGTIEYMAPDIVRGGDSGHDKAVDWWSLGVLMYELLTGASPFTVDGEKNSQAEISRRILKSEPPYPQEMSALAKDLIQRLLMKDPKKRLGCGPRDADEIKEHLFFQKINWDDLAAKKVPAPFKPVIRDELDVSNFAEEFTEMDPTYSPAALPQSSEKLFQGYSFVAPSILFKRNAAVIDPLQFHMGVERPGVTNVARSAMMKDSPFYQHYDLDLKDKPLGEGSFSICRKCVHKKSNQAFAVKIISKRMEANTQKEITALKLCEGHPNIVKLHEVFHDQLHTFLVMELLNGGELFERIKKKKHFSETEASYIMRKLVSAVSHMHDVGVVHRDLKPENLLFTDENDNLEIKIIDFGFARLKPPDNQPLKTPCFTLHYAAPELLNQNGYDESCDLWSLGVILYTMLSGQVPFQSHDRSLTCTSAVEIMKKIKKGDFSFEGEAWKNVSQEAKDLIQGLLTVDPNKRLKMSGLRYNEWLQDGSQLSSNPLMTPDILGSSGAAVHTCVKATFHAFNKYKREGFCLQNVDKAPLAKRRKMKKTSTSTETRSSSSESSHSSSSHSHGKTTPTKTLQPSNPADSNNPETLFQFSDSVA
Chain of High affinity nerve growth factor receptor (P04629 33-796 limits assumed): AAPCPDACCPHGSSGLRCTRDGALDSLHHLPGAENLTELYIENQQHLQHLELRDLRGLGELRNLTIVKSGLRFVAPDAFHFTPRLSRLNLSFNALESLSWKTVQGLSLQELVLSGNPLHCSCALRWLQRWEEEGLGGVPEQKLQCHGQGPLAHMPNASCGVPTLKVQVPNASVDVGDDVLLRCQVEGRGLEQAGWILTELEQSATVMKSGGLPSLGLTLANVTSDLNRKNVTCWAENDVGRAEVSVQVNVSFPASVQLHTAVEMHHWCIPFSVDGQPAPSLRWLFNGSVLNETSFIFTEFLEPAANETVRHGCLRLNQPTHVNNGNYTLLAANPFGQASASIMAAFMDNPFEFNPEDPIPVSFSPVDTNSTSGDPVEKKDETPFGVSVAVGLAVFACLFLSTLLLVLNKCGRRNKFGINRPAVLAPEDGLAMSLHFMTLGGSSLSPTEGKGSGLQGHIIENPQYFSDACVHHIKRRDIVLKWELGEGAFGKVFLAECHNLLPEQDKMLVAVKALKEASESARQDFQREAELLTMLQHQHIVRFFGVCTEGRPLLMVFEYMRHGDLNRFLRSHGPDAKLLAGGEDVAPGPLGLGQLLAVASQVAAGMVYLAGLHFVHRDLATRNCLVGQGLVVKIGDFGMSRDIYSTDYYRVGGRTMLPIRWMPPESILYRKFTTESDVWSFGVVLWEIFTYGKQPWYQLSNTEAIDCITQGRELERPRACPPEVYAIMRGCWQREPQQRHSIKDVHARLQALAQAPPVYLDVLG
Chain of Focal adhesion kinase 1 (Q05397 2-1052 limits assumed): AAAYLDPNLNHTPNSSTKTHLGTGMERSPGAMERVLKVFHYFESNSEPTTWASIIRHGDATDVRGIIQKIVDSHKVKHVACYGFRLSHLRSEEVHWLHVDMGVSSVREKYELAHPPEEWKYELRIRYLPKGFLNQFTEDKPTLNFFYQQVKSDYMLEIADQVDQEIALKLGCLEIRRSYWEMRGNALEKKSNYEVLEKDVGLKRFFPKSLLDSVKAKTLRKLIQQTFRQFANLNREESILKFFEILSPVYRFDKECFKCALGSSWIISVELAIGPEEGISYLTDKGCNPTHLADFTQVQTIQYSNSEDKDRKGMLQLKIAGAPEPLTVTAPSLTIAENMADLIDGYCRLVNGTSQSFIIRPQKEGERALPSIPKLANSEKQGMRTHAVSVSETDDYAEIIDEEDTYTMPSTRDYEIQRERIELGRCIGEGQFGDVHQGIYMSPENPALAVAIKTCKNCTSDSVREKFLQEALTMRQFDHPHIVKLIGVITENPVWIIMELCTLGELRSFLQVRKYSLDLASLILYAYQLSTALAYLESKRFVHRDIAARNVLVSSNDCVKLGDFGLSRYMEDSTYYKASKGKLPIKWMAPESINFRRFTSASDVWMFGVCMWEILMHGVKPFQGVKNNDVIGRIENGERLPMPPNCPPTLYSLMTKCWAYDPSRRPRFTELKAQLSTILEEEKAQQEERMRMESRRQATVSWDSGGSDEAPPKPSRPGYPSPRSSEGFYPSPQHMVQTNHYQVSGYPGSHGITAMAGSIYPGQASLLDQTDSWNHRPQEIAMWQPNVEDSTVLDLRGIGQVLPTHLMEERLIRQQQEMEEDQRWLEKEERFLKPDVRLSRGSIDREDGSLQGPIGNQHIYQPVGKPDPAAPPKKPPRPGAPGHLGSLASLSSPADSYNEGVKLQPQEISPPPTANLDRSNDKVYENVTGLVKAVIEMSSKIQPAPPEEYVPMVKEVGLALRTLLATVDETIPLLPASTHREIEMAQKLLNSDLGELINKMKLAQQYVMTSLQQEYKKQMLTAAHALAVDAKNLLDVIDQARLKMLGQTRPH
Chain of Serine/threonine-protein kinase tousled-like 2 (Homo sapiens) (Q86UE8 whole entry, looked up): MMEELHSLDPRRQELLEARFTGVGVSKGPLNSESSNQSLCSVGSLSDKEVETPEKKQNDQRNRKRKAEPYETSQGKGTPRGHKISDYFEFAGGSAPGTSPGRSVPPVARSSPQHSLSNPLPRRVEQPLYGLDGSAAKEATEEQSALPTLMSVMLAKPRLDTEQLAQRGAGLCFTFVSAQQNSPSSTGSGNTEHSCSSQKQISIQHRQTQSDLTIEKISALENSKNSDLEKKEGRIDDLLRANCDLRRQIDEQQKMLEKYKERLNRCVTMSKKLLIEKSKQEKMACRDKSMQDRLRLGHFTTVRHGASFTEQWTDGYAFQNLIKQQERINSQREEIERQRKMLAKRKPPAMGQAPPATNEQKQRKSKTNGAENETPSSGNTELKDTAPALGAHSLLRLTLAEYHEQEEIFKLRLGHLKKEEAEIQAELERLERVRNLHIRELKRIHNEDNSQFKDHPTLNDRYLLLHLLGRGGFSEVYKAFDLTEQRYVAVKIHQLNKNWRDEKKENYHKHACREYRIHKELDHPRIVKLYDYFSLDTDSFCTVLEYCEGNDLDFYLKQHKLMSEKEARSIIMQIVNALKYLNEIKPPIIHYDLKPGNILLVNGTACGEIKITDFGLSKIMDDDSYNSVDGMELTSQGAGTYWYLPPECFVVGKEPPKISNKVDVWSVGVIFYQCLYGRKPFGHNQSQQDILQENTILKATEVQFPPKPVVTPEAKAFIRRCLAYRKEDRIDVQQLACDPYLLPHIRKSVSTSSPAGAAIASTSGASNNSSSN
Chain of Macrophage colony-stimulating factor 1 receptor (Homo sapiens) (P07333 whole entry): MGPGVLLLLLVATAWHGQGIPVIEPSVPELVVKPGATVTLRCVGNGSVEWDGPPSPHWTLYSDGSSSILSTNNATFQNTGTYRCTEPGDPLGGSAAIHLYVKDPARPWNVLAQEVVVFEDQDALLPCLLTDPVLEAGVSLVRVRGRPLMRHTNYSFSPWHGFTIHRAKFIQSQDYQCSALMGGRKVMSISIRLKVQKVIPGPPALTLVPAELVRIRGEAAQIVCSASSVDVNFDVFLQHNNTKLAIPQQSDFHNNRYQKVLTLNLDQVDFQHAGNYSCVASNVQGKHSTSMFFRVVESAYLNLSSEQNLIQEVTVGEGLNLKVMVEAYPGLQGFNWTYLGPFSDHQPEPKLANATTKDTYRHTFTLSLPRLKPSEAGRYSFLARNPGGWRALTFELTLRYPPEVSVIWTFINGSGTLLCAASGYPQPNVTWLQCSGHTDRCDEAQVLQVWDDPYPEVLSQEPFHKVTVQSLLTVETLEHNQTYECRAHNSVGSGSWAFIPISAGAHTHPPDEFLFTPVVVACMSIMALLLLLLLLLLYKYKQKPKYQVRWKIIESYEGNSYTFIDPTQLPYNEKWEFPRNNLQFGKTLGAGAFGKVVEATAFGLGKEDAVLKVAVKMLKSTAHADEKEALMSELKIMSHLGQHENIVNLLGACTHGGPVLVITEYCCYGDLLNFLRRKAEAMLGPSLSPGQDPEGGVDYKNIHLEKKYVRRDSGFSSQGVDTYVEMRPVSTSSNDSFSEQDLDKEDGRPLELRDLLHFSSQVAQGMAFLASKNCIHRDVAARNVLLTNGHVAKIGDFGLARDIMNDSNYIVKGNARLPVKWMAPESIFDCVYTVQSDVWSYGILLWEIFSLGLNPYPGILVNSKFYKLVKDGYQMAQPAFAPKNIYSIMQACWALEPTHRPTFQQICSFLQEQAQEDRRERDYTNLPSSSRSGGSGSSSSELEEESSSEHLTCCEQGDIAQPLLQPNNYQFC

In test [1], `CN(C)C/C=C/C(=O)Nc1ccc(C(=O)N2CCCC(Nc3ncc(Cl)c(-c4c[nH]c5ccccc45)n3)C2)cc1` (stereo not drawn) had a % of control of 96%.
On to `COc1cc(Nc2nc(C)cc(-c3cnn4nc(OC)ccc34)n2)cc(C(F)(F)F)c1`, for which the % of control in [2] came to 100%; at Focal adhesion kinase 1, 86%; in [3] it was 100%.
For `CN(C)CCOc1ccc(-c2nc(-c3ccncc3)c(-c3ccc4c(c3)CC/C4=N\O)[nH]2)cc1`, the % of control in test [4] stood at 70%; in [5], 100%; in test [6], 86%; in test [7] it was 85%.
In [8], `Cc1cnc(Nc2ccc(F)cc2Cl)nc1-c1c[nH]c(C(=O)N[C@H](CO)c2cccc(Cl)c2)c1` gave a % of inhibition of 10%.
`O=C(NOC[C@H](O)CO)c1ccc(F)c(F)c1Nc1ccc(I)cc1F` showed a % of control in test [9] of 80%.
As to `N#Cc1cccc(-c2c[nH]c3ncnc(N4CCOCC4)c23)c1`, the % of control in test [10] was 100%. Moreover, the % of inhibition in test [11] turned out to be 9%.
In the case of `C=CC(=O)Nc1ccc(C(=O)Nc2[nH]nc3c2CN(C(=O)N[C@H](CN(C)C)c2ccccc2)C3(C)C)cc1`, the % of engagement in test [12] was -9.7%.

The values above are taken from ChEMBL document CHEMBL5465560, “Selectivity Literature for EUbOPEN Chemogenomic Library” (2024).
